Results as given in publication PMC7570620, “Synthesis and Evaluation of the Antitumor Activity of Novel 1-(4-Substituted phenyl)-2-ethyl Imidazole Apoptosis Inducers In Vitro” (Molecules, 2020).

Key:
A549 = experiment: MTT cell viability assay, A549; type: cell-based; conditions: Homo sapiens, 24 h incubation, mean ± SD, n = 4
Description: (§1) The synthesized compounds were subjected to a cytotoxicity assay using the MTT method, as described previously. IC50 is defined as the drug concentration causing a 50% reduction in cell numbers compared to the untreated control. For screening, we evaluated the effects of the compounds on the growth of three cancer cell lines (A549, SGC-7901, and HeLa). In addition, their toxicities were tested using one normal cell line (L-02). The results are the averages of four separate measurements. MTX and 5-FU served as positive controls.
(§2) The three cancer cell lines namely the human lung cancer cell line (A549), human cervical cancer cell line (HeLa), human gastric carcinoma cell line (SGC-7901), and normal liver cell line (L-02) were acquired from the American Type Culture Collection (Manassas, VA, USA). A549 and SGC-7901 cells were routinely cultured in RPMI-1640. In addition, HeLa and L-02 cells were routinely cultured in DMEM. Media was supplemented with 10% fetal bovine serum (FBS). Cells were maintained at subconfluency at 37 °C in humidified air containing 5% CO2. The cells were monitored daily and maintained at 80% cell density. All compounds tested were dissolved in DMSO and then diluted by the culture medium before the treatment of cultured cells.
(§3) Cytotoxicity of the tested samples was measured against each cell line using the 3-(4,5-dimethylthiazol-2-yl)-2,5-diphenyltetrazolium bromide (MTT) cell viability assay (Maher et al., 2019). Cancer cells (A549, SGC-7901, and HeLa) and L-02 normal cells were harvested during the logarithmic growth phase. All cells were seeded in 96-well plates at 10^4 cells/well and were treated with 5-fluorouracil (5-FU), methotrexate (MTX), and the tested samples for 24 h at final concentrations of […]. Next, 20 µL of freshly prepared MTT (Solarbio) solution (5 mg/mL of MTT in PBS) was added to each well, and the cells were cultured for 4 h at 37 °C. The supernatants were removed and resolved with 100 µL of DMSO, and the cells were shocked for 10 min at 37 °C. The optical density of the samples was measured at 490 nm using a microplate luminometer. Cell viability was expressed as the percentage change in absorbance compared to the control values.

HeLa = experiment: MTT cell viability assay, HeLa; type: cell-based; conditions: Homo sapiens, 24 h incubation, mean ± SD, n = 4
Description: as §1, §2, §3

SGC-7901 = experiment: MTT cell viability assay, SGC-7901; type: cell-based; conditions: Homo sapiens, 24 h incubation, mean ± SD, n = 4
Description: as §1, §2, §3

L-02 = experiment: MTT cytotoxicity in normal cell line L-02; type: cell-based; conditions: for IC50: Homo sapiens, L02, normal cell line L-02, MTT; for Selectivity Index SGC-7901: IC50 in normal cells (L-02)/IC50 in tumor cells (SGC-7901); for Selectivity Index A549: IC50 in normal cells (L-02)/IC50 in tumor cells (A549); for Selectivity Index HeLa: IC50 in normal cells (L-02)/IC50 in tumor cells (HeLa)
Description: as §1
The lack of selectivity between normal and cancer cells is one of the primary limitations of antitumor drugs. We evaluated the cytotoxicity of compounds 4c, 4e–4i, 4l, 4m, and 4q in the normal cell line L-02 to determine the selectivity index (defined as the ratio of cytotoxicity in L-02 cells compared to that in cancer cells). […] Compound 4q yielded satisfactory SI values in HeLa and SGC-7901 cells but an unsatisfactory SI value in A549 cells. […] Compound 4f was selected for the subsequent biological studies.
as §2, §3

## CCc1nccn1-c1ccc(NC(=O)CCC(=O)NCc2ccccn2)cc1 [Compound 4r, 1-(4-(3-(Pyridinemethylcarbamoyl)propionamide)phenyl)-2-ethyl Imidazole]
A549
  IC50: > 100 µM
HeLa
  IC50: > 100 µM
other
  melting point: 118 to 121 °C
SGC-7901
  IC50: 41.9 ± 3.47 µM

## CCCNC(=O)CCC(=O)Nc1ccc(-n2ccnc2CC)cc1 [Compound 4a, 1-(4-(3-(Propylcarbamoyl)propionamide)phenyl)-2-ethyl Imidazole]
A549
  IC50: > 100 µM
HeLa
  IC50: > 100 µM
other
  melting point: 128 to 130 °C
SGC-7901
  IC50: > 100 µM

## CCc1nccn1-c1ccc(NC(=O)CCC(=O)Nc2nccs2)cc1 [Compound 4s, 1-(4-(3-(Thiazolcarbamoyl)propionamide)phenyl)-2-ethyl Imidazole]
A549
  IC50: 24 ± 3.47 µM
HeLa
  IC50: 14.8 ± 2.05 µM
other
  melting point: 168 to 170 °C
SGC-7901
  IC50: 56.3 ± 3.24 µM

## CCc1nccn1-c1ccc(NC(=O)CCC(=O)NCc2ccccc2Cl)cc1 [Compound 4q]
A549
  IC50: 31.1 ± 3.81 µM
HeLa
  IC50: 4.91 ± 0.71 µM
other
  melting point: 116 to 120 °C
L-02
  IC50: > 500 µM
  Selectivity Index SGC-7901: >168.92
SGC-7901
  IC50: 2.96 ± 0.29 µM

## CCc1nccn1-c1ccc(NC(=O)CCC(=O)Nc2ccccc2)cc1 [Compound 4d, 1-(4-(3-(Phenylcarbamoyl)propionamide)phenyl)-2-ethylimidazole]
A549
  IC50: 86.5 ± 10.6 µM
HeLa
  IC50: > 100 µM
other
  melting point: 170 to 173 °C
SGC-7901
  IC50: > 100 µM

## CCc1nccn1-c1ccc(NC(=O)CCC(=O)Nc2ccc(OC)cc2)cc1 [Compound 4i, 1-(4-(3-(4-Methoxybenzecarbamoyl)propionamide)phenyl)-2-ethyl Imidazole]
A549
  IC50: 23.8 ± 7.16 µM
HeLa
  IC50: 7.01 ± 1.3 µM
other
  melting point: 160 to 163 °C
L-02
  IC50: 210 ± 25.5 µM
  Selectivity Index A549: 8.81
  Selectivity Index HeLa: 29.89
  Selectivity Index SGC-7901: 13.55
SGC-7901
  IC50: 15.5 ± 2.84 µM

## CCc1nccn1-c1ccc(NC(=O)CCC(=O)Nc2ccc(Cl)cc2)cc1 [Compound 4e, 1-(4-(3-(4-Cl-Phenylcarbamoyl)propionamide)phenyl)-2-ethyl Imidazol]
A549
  IC50: 43.4 ± 5.42 µM
HeLa
  IC50: 13.3 ± 1.37 µM
other
  melting point: 184 to 188 °C
L-02
  IC50: 313 ± 18 µM
  Selectivity Index A549: 7.22
  Selectivity Index HeLa: 23.58
  Selectivity Index SGC-7901: 29.48
SGC-7901
  IC50: 10.6 ± 1.75 µM

## CCc1nccn1-c1ccc(NC(=O)CCC(=O)NCc2ccc(C)cc2)cc1 [Compound 4o, 1-(4-(3-(4-Methylbenzylcarbamoyl)propionamide)phenyl)-2-ethylimidazole]
A549
  IC50: 71.3 ± 9.13 µM
HeLa
  IC50: 12.5 ± 0.91 µM
other
  melting point: 164 to 166 °C
SGC-7901
  IC50: 11.6 ± 1.59 µM

## CCc1nccn1-c1ccc(NC(=O)CCC(=O)NCc2ccc(F)cc2)cc1 [Compound 4n, 1-(4-(3-(4-F-Benzylcarbamoyl)propionamide)phenyl)-2-ethylimidazole]
A549
  IC50: > 100 µM
HeLa
  IC50: 9.36 ± 1.78 µM
other
  melting point: 137 to 140 °C
SGC-7901
  IC50: > 100 µM

## CCc1nccn1-c1ccc(NC(=O)CCC(=O)NCc2ccc(Br)cc2)cc1 [Compound 4m, 1-(4-(3-(4-Br-Benzylcarbamoyl)propionamide)phenyl)-2-ethylimidazole]
A549
  IC50: 28.6 ± 2.51 µM
HeLa
  IC50: 4.07 ± 0.59 µM
other
  melting point: 143 to 145 °C
L-02
  IC50: 210 ± 20.3 µM
  Selectivity Index A549: 7.35
  Selectivity Index HeLa: 51.59
  Selectivity Index SGC-7901: 13.85
SGC-7901
  IC50: 15.2 ± 1.74 µM

## CCc1nccn1-c1ccc(NC(=O)CCC(=O)NCc2ccccc2)cc1 [Compound 4k, 1-(4-(3-(Benzylcarbamoyl)propionamide)phenyl)-2-ethyl Imidazol]
A549
  IC50: > 100 µM
HeLa
  IC50: 15.2 ± 1.4 µM
other
  melting point: 123 to 126 °C
SGC-7901
  IC50: 20.6 ± 2 µM

## CCc1nccn1-c1ccc(NC(=O)CCC(=O)Nc2ccc(F)cc2)cc1 [Compound 4g, 1-(4-(3-(4-F-Phenylcarbamoyl)propionamide)phenyl)-2-ethyl Imidazol]
A549
  IC50: 13.8 ± 1.92 µM
HeLa
  IC50: 16.5 ± 1.48 µM
other
  melting point: 75 to 78 °C
L-02
  IC50: 42.6 ± 6.37 µM
  Selectivity Index A549: 3.10
  Selectivity Index HeLa: 2.58
  Selectivity Index SGC-7901: 3.04
SGC-7901
  IC50: 14 ± 2.29 µM

## CCc1nccn1-c1ccc(NC(=O)CCC(=O)Nc2ccc(C)cc2)cc1 [Compound 4h]
A549
  IC50: 32.2 ± 4.79 µM
HeLa
  IC50: 6.31 ± 0.79 µM
other
  melting point: 200 to 202 °C
L-02
  IC50: 290 ± 26.6 µM
  Selectivity Index A549: 9.00
  Selectivity Index HeLa: 45.94
  Selectivity Index SGC-7901: 22.10
SGC-7901
  IC50: 13.1 ± 3.02 µM

## CCc1nccn1-c1ccc(NC(=O)CCC(=O)Nc2ccc(N)cc2)cc1 [Compound 4j, 1-(4-(3-(4-amino-Phenylcarbamoyl)propionamide)phenyl)-2-ethylimidazole]
A549
  IC50: > 100 µM
HeLa
  IC50: 7.42 ± 0.67 µM
other
  melting point: 229 to 231 °C
SGC-7901
  IC50: > 100 µM

## CCCCCNC(=O)CCC(=O)Nc1ccc(-n2ccnc2CC)cc1 [Compound 4c, 1-(4-(3-(Amylcarbamoyl)propionamide)phenyl)-2-ethyl Imidazole]
A549
  IC50: 33.9 ± 2.43 µM
HeLa
  IC50: 28.5 ± 2.51 µM
other
  melting point: 95 to 98 °C
L-02
  IC50: 114 ± 8.35 µM
  Selectivity Index A549: 3.35
  Selectivity Index HeLa: 3.99
  Selectivity Index SGC-7901: 6.13
SGC-7901
  IC50: 18.5 ± 2.12 µM

## CN(Cc1cnc2nc(N)nc(N)c2n1)c1ccc(C(=O)N[C@@H](CCC(=O)O)C(=O)O)cc1 [MTX, methotrexate, reference compound]
A549
  IC50: 16 ± 3.2 µM
HeLa
  IC50: 15 ± 2.47 µM
L-02
  IC50: 42.9 ± 8.07 µM
  Selectivity Index A549: 2.68
  Selectivity Index HeLa: 2.85
  Selectivity Index SGC-7901: 3.14
SGC-7901
  IC50: 13.7 ± 1.29 µM

## CCc1nccn1-c1ccc(NC(=O)CCC(=O)O)cc1 [Compound 3, 3-(4-(2-Ethyl-1H-imidazol-1-yl)phenylcarbamoyl)propanoic Acid]
A549
  IC50: > 100 µM
HeLa
  IC50: > 100 µM
other
  melting point: 163 to 165 °C
SGC-7901
  IC50: > 100 µM

## CCCCNC(=O)CCC(=O)Nc1ccc(-n2ccnc2CC)cc1 [Compound 4b, 1-(4-(3-(Butylcarbamoyl)propionamide)phenyl)-2-ethyl Imidazol]
A549
  IC50: > 100 µM
HeLa
  IC50: > 100 µM
other
  melting point: 112 to 115 °C
SGC-7901
  IC50: 52.5 ± 3.36 µM

## CCc1nccn1-c1ccc(NC(=O)CCC(=O)NCc2ccc(OC)cc2)cc1 [Compound 4p, 1-(4-(3-(4-Methoxybenzylcarbamoyl)propanamide)phenyl)-2-ethylimidazole]
A549
  IC50: 75.9 ± 4 µM
HeLa
  IC50: 25.5 ± 4.94 µM
other
  melting point: 168 to 171 °C
SGC-7901
  IC50: 40.3 ± 4.67 µM
